Measured values from ChEMBL document CHEMBL1133613, “1-[4-(3-Phenylalkyl)phenyl]-2-aminopropanes as 5-HT(2A) partial agonists” (J Med Chem, 2000).

Key:
[1] = target: 5-hydroxytryptamine receptor 2A (Rattus norvegicus, UniProt P14842); test: Displacement of [3H]ketanserin from NIH3T3 cells stably expressing rat 5-hydroxytryptamine 2A receptor; type: cell-based
[2] = target: T1, 5-hydroxytryptamine receptor 2C (Rattus norvegicus, UniProt P08909); test: Displacement of [3H]mesulergine from A9 cells stably expressing rat 5-hydroxytryptamine 2C receptor; type: cell-based
T1 sequence (P08909 whole entry): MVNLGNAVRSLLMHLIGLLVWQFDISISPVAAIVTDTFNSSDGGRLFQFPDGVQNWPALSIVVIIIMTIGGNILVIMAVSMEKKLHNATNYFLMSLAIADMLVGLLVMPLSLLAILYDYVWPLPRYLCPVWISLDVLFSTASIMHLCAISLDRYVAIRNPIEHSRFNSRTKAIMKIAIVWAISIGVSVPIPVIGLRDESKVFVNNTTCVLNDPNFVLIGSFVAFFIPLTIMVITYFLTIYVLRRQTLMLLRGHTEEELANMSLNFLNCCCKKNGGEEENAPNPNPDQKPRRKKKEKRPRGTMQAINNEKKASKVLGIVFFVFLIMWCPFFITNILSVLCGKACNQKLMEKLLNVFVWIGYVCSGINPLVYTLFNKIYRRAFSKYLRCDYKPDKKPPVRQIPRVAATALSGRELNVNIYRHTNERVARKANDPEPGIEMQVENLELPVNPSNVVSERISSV

[3] = target: Serotonin receptor 2a and 2c (5HT2A and 5HT2C) (Rattus norvegicus) (UniProt P08909+P14842); test: Relative affinities for rat 5-HT2C receptors and 5-HT2A receptors; type: protein assay
Serotonin receptor 2a and 2c (5HT2A and 5HT2C) (Rattus norvegicus), sequence (P14842 whole entry, looked up, one chain of several): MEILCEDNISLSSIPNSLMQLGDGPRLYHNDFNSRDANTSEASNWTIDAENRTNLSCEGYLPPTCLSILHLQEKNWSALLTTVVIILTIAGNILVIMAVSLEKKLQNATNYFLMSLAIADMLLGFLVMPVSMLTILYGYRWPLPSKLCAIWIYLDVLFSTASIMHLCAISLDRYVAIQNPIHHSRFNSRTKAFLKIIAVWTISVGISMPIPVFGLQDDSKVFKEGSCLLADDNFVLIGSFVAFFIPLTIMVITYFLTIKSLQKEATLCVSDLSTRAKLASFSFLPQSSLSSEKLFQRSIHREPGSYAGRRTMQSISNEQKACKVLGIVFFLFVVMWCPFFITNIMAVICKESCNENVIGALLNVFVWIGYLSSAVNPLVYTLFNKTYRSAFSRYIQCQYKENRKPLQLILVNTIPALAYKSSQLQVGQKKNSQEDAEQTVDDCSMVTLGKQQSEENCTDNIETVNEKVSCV

5-hydroxytryptamine receptor 2A, sequence (P14842 whole entry): as the sequence (P14842 whole entry, looked up, one chain of several) above

Structure (SMILES)	Ki [1]	Ki [2]	Selectivity [3]
COc1ccccc1CC(C)N (configuration not stated)	> 10000 nM	> 10000 nM	–
COc1cccc(CC(C)N)c1OC (configuration not stated)	4280 nM	> 10000 nM	–
COc1cc(CC(C)N)ccc1CCCc1ccccc1 (configuration not stated)	17 nM	135 nM	7.9
COc1cc(CC(C)N)cc(OC)c1Br (configuration not stated)	210 nM	570 nM	–
NCCc1ccc(CCCc2ccccc2)cc1	60 nM	525 nM	8.9
COc1cc(CCCc2ccccc2)c(OC)cc1CCN	150 nM	28 nM	0.2
COc1cc(CCCc2ccccc2)cc(OC)c1CC(C)N (configuration not stated)	3 nM	39 nM	13
COc1cc(CC(C)N)c(OC)cc1CCCc1ccc(Cl)cc1 (configuration not stated)	12 nM	16 nM	1.3
COc1cc(CCCc2ccccc2)ccc1CC(C)N (configuration not stated)	8 nM	89 nM	11.1
COc1cc(CC(C)N)c(OC)cc1CCCCc1ccccc1 (configuration not stated)	8 nM	6 nM	0.8
CC(N)Cc1ccc(CCCc2ccccc2)cc1 (configuration not stated)	78 nM	530 nM	6.8
COc1cc(CCc2ccccc2)c(OC)cc1CCN	37 nM	76 nM	2
COc1cccc(OC)c1CC(C)N (configuration not stated)	> 10000 nM	> 10000 nM	–
COc1c(CCCc2ccccc2)ccc(CC(C)N)c1OC (configuration not stated)	4 nM	79 nM	19.8
COc1cccc(CC(C)N)c1 (configuration not stated)	> 10000 nM	> 10000 nM	–
COc1cc(CC(C)N)c(OC)cc1CCCc1ccccc1 (configuration not stated)	30 nM	50 nM	1.7
COc1cc(CCN)c(OC)cc1Br	16 nM	–	–
COc1ccc(OC)c(CC(C)N)c1 (configuration not stated)	4720 nM	> 10000 nM	–
COc1ccc(OC)c(CCN)c1	3000 nM	5520 nM	–
COc1cc(CCCCc2ccccc2)c(OC)cc1CCN	115 nM	25 nM	0.2
COc1ccc(CCCc2cc(OC)c(CC(C)N)cc2OC)cc1 (configuration not stated)	28 nM	24 nM	0.9
COc1cc(C[C@@H](C)N)cc(OC)c1	> 10000 nM	> 10000 nM	–
COc1cc(CC(C)N)c(OC)cc1CCc1ccccc1 (configuration not stated)	95 nM	140 nM	1.5
COc1cc(CC(C)N)cc(OC)c1CCCc1ccccc1 (configuration not stated)	4 nM	40 nM	10
